Tests used:
Type in all cases: in vivo, mouse
[1] = tested on: DS-induced colitis in C3H/HeJ male mice; test: Calcitriol prevention of DS-induced colitis; conditions: 50 ng/day in diet from day −7; 1% DS days 0 to 5; terminated day 27
[2] = tested on: 129x1/SvJ male mice; test: Serum calcium after calcitriol feeding, 129x1/SvJ male mice
Procedure: In order to determine serum calcium, blood was collected, allowed to clot, and centrifuged (5,000×g for 10 minutes) at 6° C. The serum was decanted and stored frozen at −20° C. The samples, standards, and buffer blanks (2 μL each) were aliquoted into duplicate wells of a 96-well plate. Calcium reagent working solution (0.25 mL), prepared according to the manufacturer's directions (Sigma Diagnostics, St. Louis, Mo.), was added to each well, and the absorbance at 570 nm was measured.

[3] = tested on: chronic DS-induced IBD in C3H/HeJ male mice; test: Calcitriol treatment of chronic DS-induced colitis
Procedure: Fecal hemoglobin was analyzed in the mice to determine bleeding from a breached intestinal barrier. […] Co., Needham Heights, Mass.), the supernatants were decanted into fresh tubes and stored frozen at -20° C. Hemoglobin in the supernatants was analyzed by a method adapted from Saitoh et al., Digestion, 56:67-75, 1995, and Liem et al., Anal. Biochem., 98:388-393, 1979, with rat hemoglobin as standard (Sigma-Aldrich). The supernatants were diluted 1:25 in TBS. […] The reaction was stopped with 100 μL of 2 M phosphoric acid, and the absorbance at 450 nm was measured with an MRX Revelation Microplate Reader (DYNEX Technologies). […] The mice were euthanized with an i.p. injection of pentobarbital. […] The fixed tissue was embedded in paraffin, sectioned at 6 μm, stained with hematoxylin and eosin, and examined by light microscopy. Scoring was conducted by a veterinary pathologist in blinded fashion. […] Clin. Invest., 98:1010-1020, 1996. The scores were summed to provide a total colitis score for each mouse. […] The serum was decanted and stored frozen at -20° C. The samples, standards, and buffer blanks (2 μL each) were aliquoted into duplicate wells of a 96-well plate. Calcium reagent working solution (0.25 mL), prepared according to the manufacturer's directions (Sigma Diagnostics, St. Louis, Mo.), was added to each well, and the absorbance at 570 nm was measured. […] In particular, age-matched adult C3H/HeJ male mice were subjected to three DS treatment cycles treatment separated by 6-8 weeks. […] Between treatments, the mice were fed laboratory mouse chow. These treatments induced chronic IBD. Beginning 10 days after the last DS treatment was completed, the mice were divided into two groups. The groups were matched with respect to fecal Hg and weight (Table 6). Group A was fed synthetic diet and group B was fed calcitriol in synthetic diet. The experiment was terminated 21 days later.

[4] = 50 ng/day after cycle 3, 21 days, 3 cycles of 1% DS
[5] = 50 ng/day after cycle 3, 3 cycles of 1% DS

C=C1/C(=C\C=C2/CCC[C@]3(C)[C@@H]([C@H](C)CCCC(C)(C)O)CC[C@@H]23)C[C@@H](O)C[C@@H]1O [Calcitriol, 1,25 dihydroxyvitamin D3]
Terminal weight [1]: 28.0 ± 2.9 g
Serum Calcium 129x1/SvJ male ([2]; 10 ng/d for two weeks): 12.4 ± 0.6 mg/dL
Serum Calcium 129x1/SvJ male ([2]; 20 ng/d for two weeks): 11.5 ± 0.1 mg/dL
Serum Calcium 129x1/SvJ male ([2]; 50 ng/d for two weeks): 11.5 ± 0.4 mg/dL
Serum Calcium 129x1/SvJ male ([2]; 100 ng/d for two weeks): 11.1 ± 1.1 mg/dL
Tolerability of the calcitriol doses ([2]; mouse, in vivo): well tolerated
Terminal serum calcium [3, 4]: 10.3 ± 1.1 mg/dL
Terminal weight [3, 4]: 35.1 ± 4.0 g
Colon Histopathology, Distal colon [3, 5]: 1 ± 1
Colon histopathology, Medial colon [3, 5]: 1 ± 1
Colon histopathology, Proximal colon [3, 5]: 2 ± 1
Colon histopathology, Rectum [3, 5]: 2 ± 1
Colon histopathology, Sum [3, 5]: 6 ± 2
Hemoglobin in Stool (DS cycle 3) ([3]; DS cycle 3, before calcitriol was started (groups matched for fecal Hg)): 9 ± 10 mg/g
Effect on severity of chronic DS-induced IBD ([3]; calcitriol in synthetic diet for 21 days): reduced the severity of chronic DS-induced IBD
Reduction in colon histopathology ([3]; treated with calcitriol for 21 days): approximately 45%

Reference: patent publication US6989377B2, “Treating vitamin D responsive diseases” (priority 1999, dated 2006)
